Laboratory results published in ChEMBL document CHEMBL5214916, “Enzyme inhibition as a potential therapeutic strategy to treat COVID-19 infection” (Bioorg Med Chem, 2021).

Assays:
[1] = biological target: Transmembrane protease serine 2 (Homo sapiens, UniProt O15393); experiment: Inhibition of TMPRSS2 (unknown origin) expressed in Escherichia coli BL21 (DE3) using H-D cyclohexylalanine-Pro-Arg-AM as substrate by Dixon method
[2] = test system: Calu-3; experiment: Cytotoxicity against human Calu-3 cells assessed as decrease in viability at 50 uM incubated for 48 hrs by MTT assay; format: toxicity, cell-based; conditions: calu-3, 48 h
[3] = biological target: T1, Angiotensin-converting enzyme (Homo sapiens, UniProt P12821); experiment: Inhibition of recombinant human ACE using Mca-RPGFSAFK (Dnp)- OH as substrate by fluorescence plate reader assay
T1 sequence (P12821 whole entry): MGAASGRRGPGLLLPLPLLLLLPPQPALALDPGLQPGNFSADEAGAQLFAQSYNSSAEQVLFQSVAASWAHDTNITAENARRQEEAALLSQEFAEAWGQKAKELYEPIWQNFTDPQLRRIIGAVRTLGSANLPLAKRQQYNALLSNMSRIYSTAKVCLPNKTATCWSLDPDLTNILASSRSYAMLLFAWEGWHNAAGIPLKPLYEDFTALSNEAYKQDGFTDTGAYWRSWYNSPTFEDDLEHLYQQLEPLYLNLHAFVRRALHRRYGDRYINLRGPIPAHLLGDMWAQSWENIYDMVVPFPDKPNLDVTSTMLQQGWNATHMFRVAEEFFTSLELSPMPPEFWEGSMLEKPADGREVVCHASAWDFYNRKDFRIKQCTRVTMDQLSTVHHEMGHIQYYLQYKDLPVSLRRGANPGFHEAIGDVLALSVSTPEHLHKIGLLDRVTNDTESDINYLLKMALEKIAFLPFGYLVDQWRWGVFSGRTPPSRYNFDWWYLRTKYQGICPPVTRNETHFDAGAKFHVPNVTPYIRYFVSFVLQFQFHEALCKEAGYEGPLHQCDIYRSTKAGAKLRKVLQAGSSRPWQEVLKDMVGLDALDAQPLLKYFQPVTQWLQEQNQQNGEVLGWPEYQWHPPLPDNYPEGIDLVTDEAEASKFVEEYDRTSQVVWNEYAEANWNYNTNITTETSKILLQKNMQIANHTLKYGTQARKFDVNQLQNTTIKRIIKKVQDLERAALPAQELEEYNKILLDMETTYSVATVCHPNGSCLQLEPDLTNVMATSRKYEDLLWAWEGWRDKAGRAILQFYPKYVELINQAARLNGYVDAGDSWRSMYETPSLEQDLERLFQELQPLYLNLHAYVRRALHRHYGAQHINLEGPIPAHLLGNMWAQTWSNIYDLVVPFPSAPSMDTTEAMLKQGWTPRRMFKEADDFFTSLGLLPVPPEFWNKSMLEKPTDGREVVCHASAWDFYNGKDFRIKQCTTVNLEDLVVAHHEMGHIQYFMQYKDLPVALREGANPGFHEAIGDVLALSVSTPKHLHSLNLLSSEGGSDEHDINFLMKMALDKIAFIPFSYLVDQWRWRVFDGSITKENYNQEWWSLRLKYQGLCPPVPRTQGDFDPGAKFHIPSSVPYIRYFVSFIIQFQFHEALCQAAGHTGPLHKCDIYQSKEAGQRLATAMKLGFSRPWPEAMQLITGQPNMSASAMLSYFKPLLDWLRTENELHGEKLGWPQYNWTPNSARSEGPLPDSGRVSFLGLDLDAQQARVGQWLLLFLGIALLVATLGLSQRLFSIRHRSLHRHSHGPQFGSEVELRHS

[4] = biological target: T1, Angiotensin-converting enzyme; experiment: Inhibition of ACE in human MNCs assessed as maximum inhibition using substrate Mca-RPGFSAFK (Dnp)-OH as substrate by fluorescence plate reader assay relative to control; format: cell-based; conditions: Mononuclear cell line
[5] = biological target: T1, Angiotensin-converting enzyme; experiment: Inhibition of recombinant human ACE assessed as maximum inhibition using Mca-RPGFSAFK (Dnp)-OH as substrate by fluorescence plate reader assay relative to control
[6] = biological target: T2, Angiotensin-converting enzyme 2 (Homo sapiens, UniProt Q9BYF1); experiment: Inhibition of recombinant human ACE2 assessed as maximum inhibition using 7- Mca-YVADAPK (Dnp) as substrate by fluorescence plate reader assay relative to control
Target sequence in this assay (Q9BYF1 18-805 limits assumed): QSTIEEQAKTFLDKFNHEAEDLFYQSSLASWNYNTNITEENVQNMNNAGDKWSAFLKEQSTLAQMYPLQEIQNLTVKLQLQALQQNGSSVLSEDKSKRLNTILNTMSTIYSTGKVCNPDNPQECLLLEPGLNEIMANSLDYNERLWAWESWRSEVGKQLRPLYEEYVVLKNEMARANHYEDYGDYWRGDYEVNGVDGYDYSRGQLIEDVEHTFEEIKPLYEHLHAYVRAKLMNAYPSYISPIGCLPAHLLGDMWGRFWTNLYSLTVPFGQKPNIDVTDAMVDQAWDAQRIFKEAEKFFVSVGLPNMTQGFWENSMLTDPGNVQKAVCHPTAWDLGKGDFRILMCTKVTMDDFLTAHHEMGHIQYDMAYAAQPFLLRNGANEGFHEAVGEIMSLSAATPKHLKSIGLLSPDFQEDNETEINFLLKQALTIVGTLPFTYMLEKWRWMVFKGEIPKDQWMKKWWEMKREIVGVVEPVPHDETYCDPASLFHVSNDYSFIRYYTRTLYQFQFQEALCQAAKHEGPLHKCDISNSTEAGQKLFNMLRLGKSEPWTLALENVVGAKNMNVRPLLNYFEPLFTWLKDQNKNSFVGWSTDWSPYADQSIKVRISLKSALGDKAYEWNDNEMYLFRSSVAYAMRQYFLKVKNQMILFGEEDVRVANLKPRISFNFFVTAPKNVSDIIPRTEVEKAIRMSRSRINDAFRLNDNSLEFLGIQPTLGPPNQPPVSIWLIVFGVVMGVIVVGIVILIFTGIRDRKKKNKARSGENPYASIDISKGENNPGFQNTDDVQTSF

[7] = biological target: T2, Angiotensin-converting enzyme 2; experiment: Inhibition of recombinant human ACE2 using 7-Mca-YVADAPK (Dnp) as substrate by fluorescence plate reader assay
Target sequence in this assay (Q9BYF1 whole entry): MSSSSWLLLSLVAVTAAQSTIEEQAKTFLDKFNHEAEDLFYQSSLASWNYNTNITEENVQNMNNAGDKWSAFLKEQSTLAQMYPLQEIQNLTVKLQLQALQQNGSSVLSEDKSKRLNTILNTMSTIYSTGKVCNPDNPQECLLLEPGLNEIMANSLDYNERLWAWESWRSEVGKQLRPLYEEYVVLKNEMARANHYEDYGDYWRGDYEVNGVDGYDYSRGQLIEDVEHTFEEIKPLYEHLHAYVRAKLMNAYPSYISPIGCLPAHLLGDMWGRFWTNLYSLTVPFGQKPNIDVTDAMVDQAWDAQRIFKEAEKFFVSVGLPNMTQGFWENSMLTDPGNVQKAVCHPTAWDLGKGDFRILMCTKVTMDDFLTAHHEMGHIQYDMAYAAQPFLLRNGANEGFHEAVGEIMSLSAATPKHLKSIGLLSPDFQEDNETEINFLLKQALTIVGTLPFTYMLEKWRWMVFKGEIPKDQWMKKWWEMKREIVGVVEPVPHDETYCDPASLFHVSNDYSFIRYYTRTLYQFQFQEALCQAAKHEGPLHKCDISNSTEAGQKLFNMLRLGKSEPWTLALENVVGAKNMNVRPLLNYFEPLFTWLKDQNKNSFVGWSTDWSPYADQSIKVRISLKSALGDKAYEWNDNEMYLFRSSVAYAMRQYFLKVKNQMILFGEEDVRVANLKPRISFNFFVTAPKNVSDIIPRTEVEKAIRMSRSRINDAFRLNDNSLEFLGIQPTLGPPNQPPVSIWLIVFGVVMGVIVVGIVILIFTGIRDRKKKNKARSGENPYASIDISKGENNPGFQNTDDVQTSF

[8] = biological target: T2, Angiotensin-converting enzyme 2; experiment: Inhibition of ACE2 in human MNCs assessed as maximum inhibition using 7- Mca-YVADAPK (Dnp) as substrate by fluorescence plate reader assay relative to control; format: cell-based; conditions: Mononuclear cell line
Target sequence in this assay (Q9BYF1 18-805 limits assumed): as the sequence (Q9BYF1 18-805 limits assumed) above

[9] = test system: Influenza A virus; experiment: Antiviral activity against human pandemic influenza virus A/Hamburg/5/09 (H1N1) infected in human Calu-3 cells assessed as fold decrease in viral titre at 50 uM incubated for 24 hrs by plaque assay; format: functional
[10] = test system: Influenza A virus; experiment: Antiviral activity against human pandemic influenza virus A/Aichi/2/68 (H3N2) infected in human Calu-3 cells assessed as fold decrease in viral titre at 10 uM incubated for 24 hrs by plaque assay; format: functional
[11] = test system: Influenza A virus; experiment: Antiviral activity against human pandemic influenza virus A/Hamburg/5/09 (H1N1) infected in human Calu-3 cells assessed as fold decrease in viral titre at 10 uM incubated for 24 hrs by plaque assay; format: functional
[12] = test system: Influenza A virus; experiment: Antiviral activity against human pandemic influenza virus A/Aichi/2/68 (H3N2) infected in human Calu-3 cells assessed as fold decrease in viral titre at 50 uM incubated for 24 hrs by plaque assay; format: functional

Sequence of Transmembrane protease serine 2 (O15393 1-255 limits assumed): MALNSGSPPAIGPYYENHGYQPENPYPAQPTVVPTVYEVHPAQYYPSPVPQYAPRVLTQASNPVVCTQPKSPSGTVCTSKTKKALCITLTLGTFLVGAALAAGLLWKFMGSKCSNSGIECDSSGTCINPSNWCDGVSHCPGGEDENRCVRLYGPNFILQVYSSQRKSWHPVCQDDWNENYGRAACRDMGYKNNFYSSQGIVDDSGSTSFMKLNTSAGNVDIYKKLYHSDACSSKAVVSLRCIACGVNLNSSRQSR
Sequence of Transmembrane protease serine 2 (O15393 256-492 limits assumed): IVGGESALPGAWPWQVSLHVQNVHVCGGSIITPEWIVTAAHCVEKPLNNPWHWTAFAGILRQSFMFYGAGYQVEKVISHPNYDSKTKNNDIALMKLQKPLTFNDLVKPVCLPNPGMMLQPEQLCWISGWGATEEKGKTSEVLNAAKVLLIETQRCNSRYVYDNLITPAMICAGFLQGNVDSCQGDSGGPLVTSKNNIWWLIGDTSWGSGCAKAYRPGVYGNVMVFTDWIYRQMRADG

In the case of `N=C(N)c1cccc(C[C@H](NS(=O)(=O)c2cccc(-c3ccc(Cl)cc3Cl)c2)C(=O)N2CCC(NC(=O)NC3CCCCC3)CC2)c1`, the Ki [1] is reported as 3 nM.

Compound `COc1ccc(-c2cccc(S(=O)(=O)N[C@@H](Cc3cccc(C(=N)N)c3)C(=O)N3CCC(NC(=O)NC4CCCCC4)CC3)c2)c(OC)c1` has a Ki [1] of 3 nM and an Activity [2] of 20%.

`CNC(=O)NCCC1CCN(C(=O)[C@H](Cc2cccc(C(=N)N)c2)NS(=O)(=O)c2cccc(-c3ccc(OC)cc3OC)c2)CC1` gave a Ki [1] of 3 nM.

For `CC(C)C[C@@H](N[C@@H](Cc1cncn1Cc1cc(Cl)cc(Cl)c1)C(=O)O)C(=O)O`, the IC50 [3] was 39800 nM, the Imax [4] was 20% and the Imax [5] was 49%. It also gave an Imax [6] of 93%, an IC50 [7] of 1.26 nM and an Imax [8] of 35%.

In the case of `N=C(N)c1cccc(C[C@H](NS(=O)(=O)c2cccc(-c3ccc(Cl)cc3Cl)c2)C(=O)N2CCC(CCN)CC2)c1`, the Ki [1] is reported as 0.9 nM, the “fold change (FC)” value [9] is reported as 100 and the “fold change (FC)” value [10] is reported as 100. For the same compound, the “fold change (FC)” value [11] was 10 and the “fold change (FC)” value [12] was 100.

`CC(C)CC(N[C@@H](Cc1cncn1Cc1cc(Cl)cc(Cl)c1)C(=O)O)C(=O)O` (mixture of isomers) was tested, and the IC50 [3] was 39800 nM, the Imax [4] was 22% and the Imax [5] was 48%. The Imax [6] was 94%, the IC50 [7] was 3.16 nM and the Imax [8] was 34%.

Work on `CNC(=O)NCCC1CCN(C(=O)[C@H](Cc2cccc(C(=N)N)c2)NS(=O)(=O)c2cccc(-c3ccc(Cl)cc3Cl)c2)CC1` yielded a Ki [1] of 3 nM.

With `CNC(=O)CCCC1CCN(C(=O)[C@H](Cc2cccc(C(=N)N)c2)NS(=O)(=O)c2cccc(-c3ccc(Cl)cc3Cl)c2)CC1` the Activity [2] was 20%.

`CC(C)C[C@H](N[C@@H](Cc1cncn1Cc1cc(Cl)cc(Cl)c1)C(=O)O)C(=O)O` [ORE-1001] showed a pIC50 [3] of 5, an Imax [4] of 34% and an Imax [5] of 46%. For the same compound, the Imax [6] was 80%, the pIC50 [7] was 8.01 and the Imax [8] was 63%.

`COc1ccc(-c2cccc(S(=O)(=O)N[C@@H](Cc3cccc(C(=N)N)c3)C(=O)N3CCC(CCN)CC3)c2)c(OC)c1` showed a Ki [1] of 1 nM.
